Assay results published in PMC11192711, “Automated radiosynthesis and preclinical evaluation of two new PSMA-617 derivatives radiolabelled via [^18F]AlF^2+ method” (EJNMMI Radiopharmacy and Chemistry, 2024).

System: LNCaP tumour-bearing NSG mice
Assay: PET/CT in vivo biodistribution and tumour uptake in subcutaneous LNCaP prostate cancer xenograft model
Settings: n = 4; for Bone (SUV mean) / Brain (SUV mean) / Colon (SUV mean) / Gall bladder (SUV mean) / Heart (SUV mean) / Kidney (SUV mean) / Liver (SUV mean) / Lung (SUV mean) / Muscle (SUV mean) / Salivary gland (SUV mean) / Small instestine (SUV mean): LNCaP NSG male mice, i.v., PET/CT; for ratio between tumour and muscle (tumour SUV max/muscle SUV mean) / uptake in the tumour expressed as SUV max: LNCaP tumour, NSG mice
Experimental: The uptake of [^18F]F-PSMA-1007 and [^18F]F-PSMA-617-NODA ([^18F]1) was compared in vivo in a xenograft model of human prostate cancer obtained using LNCaP cells which are PSMA positive, as confirmed by real time PCR-analysis (Additional file 1: S69A). LNCaP tumour-bearing NSG mice were injected i.v. with either [^18F]F-PSMA-1007 or [^18F]F-PSMA-617-NODA (~ 3.8 MBq/mouse, ~ 20 pmol for [^18F]F-PSMA-1007 and ~ 50 pmol [^18F]1). Radiotracer uptake was assessed after 10, 60 and 120 min post injection by whole-body PET/CT acquisitions.
Total body biodistribution of [^18F]F-PSMA-1007, [^18F]F-PSMA-617-NODA and [^18F]F-PSMA-617-RESCA was evaluated in vivo using imaging PET/CT. [^18F]F-PSMA-617-NODA uptake was compared to that of the [^18F]F-PSMA-1007 in a PSMA positive prostate tumour xenograft model (LNCaP). [^18F]F-PSMA-617-NODA and [^18F]F-PSMA-617-RESCA uptake were also evaluated using an orthotopic glioma model (Gli36ΔEGFR).
Animal experiments were carried out in compliance with institutional guidelines for the care and the use of experimental animals, which have been authorized by the Italian Ministry of Health (n° 378/2019-PR and 817/2021-PR). The animals were housed at constant temperature (23 °C) and relative humidity (40%) under a regular light/dark cycle with food and water available ad libitum. Seven to eight weeks old male NSG mice (Charles River Laboratories Italia s.r.l., Italy) were subcutaneously inoculated in the right flank with 5 × 10^6 of PSMA‐positive human prostate cancer cells (LNCaP) suspended in matrigel (1: 1, total volume 200 ul). The growth tumour was monitored periodically with calliper and tumour volume was calculated using the following formula: […]
When the tumour volume was about 230.8 ± 60.3 mm^3 (approximately 15 days after tumour cells inoculation), 4 animals performed an in vivo biodistribution of [^18F]F-PSMA-1007 and [^18F]F-PSMA-617-NODA, on successive but non-consecutive days, using PET/CT.
Mice were injected into a tail vein with 3.8 ± 0.1 MBq of [^18F]F-PSMA-1007, 4.0 ± 0.2 MBq of [^18F]F-PSMA-617-NODA ([^18F]1) and 3.8 ± 0.1 MBq of [^18F]F-PSMA-617-RESCA ([^18F]2), respectively.
Total body PET/CT acquisitions were performed using PET/CT tomographs dedicated to small animals, X-ß-CUBE (Molecubes, Gent, Belgium) after 10, 60 and 120 min from tracer injection. Each acquisition lasted 30 min and mice were maintained anesthetized (4% isoflurane in induction and 2% in maintenance in air) during acquisition.
Image quantification analysis was performed with PMOD 4.105 software (Zurich, Switzerland). Volumes of interest (VOIs) were drawn on peripheral organs (tumour, thoracic muscle, heart, liver, kidney, salivary glands, lung, small intestine, colon, bone, gall bladder) and on the healthy brain using CT images. For the glioma model, PET/CT images were co-registered to MRI images and two different VOIs were defined: (1) a control VOI covering the healthy left striatum (volume 4 mm^3) was drawn on the axial MR images, adjusted on the other imaging planes and then copied on the PET images of each mouse; (2) a second glioma-covering VOI was drawn in the tumour-affected brain hemisphere and centered on mice lesions.
For quantification, Standardized Uptake Value (SUV) was calculated according to the formula:
SUV = organ concentration activity [MBq/g]/(injected activity [MBq]/animal weight [g]).
The data were expressed as standardized-uptake-values (SUVmean and SUVmax) and as tumour-to-muscle (T/M) and tumour-to-blood (T/B) ratio in PCa model and as tumour-to-contralateral (T/Cl) ratio in glioma model.

For `O=C(O)CC[C@H](NC(=O)N[C@@H](CCCCNC(=O)[C@H](Cc1ccc2ccccc2c1)NC(=O)c1ccc(CNC(=O)[C@H](CCC(=O)O)NC(=O)[C@H](CCC(=O)O)NC(=O)c2ccc([18F])nc2)cc1)C(=O)O)C(=O)O` [[^18F]F-PSMA-1007, reference compound], the “Bone (SUV mean)” value (10 min p.i.) was 0.36 ± 0.09, the “Brain (SUV mean)” value (10 min p.i.) was 0.12 ± 0.02 and the “Colon (SUV mean)” value (10 min p.i.) was 0.35 ± 0.27. The “Gall bladder (SUV mean)” value (10 min p.i.) was 0.99 ± 0.40, the “Heart (SUV mean)” value (10 min p.i.) was 0.38 ± 0.09 and the “Kidney (SUV mean)” value (10 min p.i.) was 9.55 ± 2.63. The “Liver (SUV mean)” value (10 min p.i.) was 0.50 ± 0.04, the “Lung (SUV mean)” value (10 min p.i.) was 0.46 ± 0.09 and the “Muscle (SUV mean)” value (10 min p.i.) was 0.23 ± 0.03. For the same compound, the “Salivary gland (SUV mean)” value (10 min p.i.) was 1.40 ± 0.25, the “Small instestine (SUV mean)” value (10 min p.i.) was 0.60 ± 0.05 and the “Bone (SUV mean)” value (60 min p.i.) was 0.26 ± 0.09. The “Brain (SUV mean)” value (60 min p.i.) was 0.09 ± 0.03, the “Colon (SUV mean)” value (60 min p.i.) was 0.28 ± 0.14 and the “Gall bladder (SUV mean)” value (60 min p.i.) was 1.02 ± 0.43. For the same compound, the “Heart (SUV mean)” value (60 min p.i.) was 0.28 ± 0.06, the “Kidney (SUV mean)” value (60 min p.i.) was 12.04 ± 2.49 and the “Liver (SUV mean)” value (60 min p.i.) was 0.33 ± 0.06. For the same compound, the “Lung (SUV mean)” value (60 min p.i.) was 0.40 ± 0.16, the “Muscle (SUV mean)” value (60 min p.i.) was 0.20 ± 0.04 and the “Salivary gland (SUV mean)” value (60 min p.i.) was 1.40 ± 0.20. For the same compound, the “Small instestine (SUV mean)” value (60 min p.i.) was 0.49 ± 0.12, the “Bone (SUV mean)” value (120 min p.i.) was 0.21 ± 0.08 and the “Brain (SUV mean)” value (120 min p.i.) was 0.10 ± 0.03. For the same compound, the “Colon (SUV mean)” value (120 min p.i.) was 0.26 ± 0.08, the “Gall bladder (SUV mean)” value (120 min p.i.) was 0.75 ± 0.48 and the “Heart (SUV mean)” value (120 min p.i.) was 0.24 ± 0.03. For the same compound, the “Kidney (SUV mean)” value (120 min p.i.) was 14.49 ± 1.41, the “Liver (SUV mean)” value (120 min p.i.) was 0.21 ± 0.02 and the “Lung (SUV mean)” value (120 min p.i.) was 0.31 ± 0.07. For the same compound, the “Muscle (SUV mean)” value (120 min p.i.) was 0.15 ± 0.05, the “Salivary gland (SUV mean)” value (120 min p.i.) was 1.58 ± 0.12 and the “Small instestine (SUV mean)” value (120 min p.i.) was 0.30 ± 0.07. For the same compound, the “ratio between tumour and muscle (tumour SUV max/muscle SUV mean)” value (60 min p.i.) was 7.46 ± 1.55, the “uptake in the tumour expressed as SUV max” value (60 min p.i.) was 1.48 ± 0.29 and the “ratio between tumour and muscle (tumour SUV max/muscle SUV mean)” value (120 min p.i.) was 11.99 ± 6.16. The “uptake in the tumour expressed as SUV max” value (120 min p.i.) was 1.60 ± 0.44.
